One data set concerns Gr1^+ cells. Briefly: Gr1+ cell apoptosis, Annexin V FACS analysis. It is filed as cell-based, Mouse. As to conditions: 5 μM and 10 μM, 8 hours, Annexin V-FITC FACS.
Data set [1] can be described thus: In vitro stability assay in PBS (pH 7.4) at 37° C. Format: physicochemical. To be noted: 150 min. Here is the method: The fold reduction of the concentration at each time was determined by comparison to the beginning value. The experiments were repeated three times for each time point (n=3).
In another data set the test system is C57BL/6j mice. Nature of the data set: LPS mouse septic shock model. Format: in vivo. As to conditions: 16 hours after IP injection of LPS, 4 mg/kg IP. The procedure:
Mouse mortality was monitored over a period of 4 days. The sera were collected 16 hr after LPS injection and used to determine IL-6 and TNF-α levels using ELISAs as before. At day 1 after LPS challenge, 3 mice from each treated group were sacrificed and the leukocytes in the lungs were isolated using a method described previously (21). The percentage of CD11b^+Gr-1^+ cells in the lung was determined by FACS analysis.
Briefly, to monitor mice mortality, a LD50 (median lethal dose) of LPS was determined first. LPS (5 mg/ml, Sigma, St. Louis, Mo.) was then prepared with sterile H2O and varied amounts of LPS were IP injected into the same batch of commercially supplied C57BL/6j mice. Each group contained 6 mice. […] Exosomes and PBS injections served as controls.

The next data set has as its system C57BL/6 mice. Nature of the data set: Experimental autoimmune encephalitis (EAE), MOG 35-55 induced. Format: in vivo. To be noted: intranasal daily from day 4, 1.5 nmoles; scale 0-5. The procedure:
EAE was induced in six-week-old female C57BL/6 mice using a procedure described previously (67). Briefly, mice were primed subcutaneously in the flanks with 150 μg of Myelin Oligodendrocyte Glycoprotein (MOG) 35-55 peptide (Biosynthesis, Lewisville, Tex.) per animal. The peptide was emulsified in complete Freund's adjuvant (CFA) containing 1 mg/ml of Mycobacterium tuberculosis H37RA (Difco, Detroit, Mich.). Two days later the mice were injected IP with 500 ng of Pertussis toxin (Alexis Corp., San Diego, Calif.) in 100 μl of PBS. Mice (n=10) were treated intranasally with daily doses of 1.5 nmoles of Exo-cur, or with Cur- or Exo-controls in PBS or PBS-control for 26 consecutive days. […] The mice were scored as follows: 0, no detectable signs of EAE; 1, complete limp tail; 2, limp tail and hindlimb weakness; 3, severe hindlimb weakness; 4, complete bilateral hindlimb paralysis; 5, total paralysis of both forelimbs and hindlimbs or death.
Relative quantification of select mRNA was performed using a CFX96 Realtime System and SsoFast™ Evagreen® supermixture (Bio-Rad Laboratories, Hercules, Calif.) according to the manufacturer's instructions. […] Fold changes in mRNA expression between treatments and controls were determined the ΔCT method (91). Fluorescence threshold cycle (Ct) values were calculated using SDS 700 System Software (Bio-Rad Laboratories, Hercules, Calif.). […]

Experimental for Gr1^+ cells: For cell surface marker staining, isolated cells were blocked at 4° C. for 5 min with 10 μg/ml mouse Fc block (BD Biosciences, San Jose, Calif.) and then reacted with various fluorochrome-labeled antibodies including appropriate isotype controls for 30 min at 4° C. After washing twice, cells were fixed and analyzed using a FACSCalibur flow cytometer (Becton Dickinson Biosciences, San Jose, Calif.). Data were analyzed using FlowJo software (Tree Star, Inc., Ashland, Oreg.). The following antibodies were used for immunostaining: FITC-Annexing V (Invitrogen, Carlsbad, Calif.), APC anti-mouse CD11b and PE anti-mouse Gr-1 (eBiosciences, San Diego, Calif.).
Mouse bone marrow cells were isolated as described previously (22). The isolated bone marrow cells were re-suspended to a concentration of 1×10^8 cells/ml using RPMI 1640 medium supplemented with 10% FBS. A Gr1-PE conjugated antibody (3 μg/ml), following a mouse FcR blocking specific antibody (5 μl/ml), was added, mixed thoroughly and incubated at 4° C. for 15 min. After centrifugation at 1500 rpm for 5 min, cells were re-suspended in fresh medium to a concentration of 1×10^8 cells/ml. EasySep® PE selection cocktail (25 μl/ml, StemCell Technologies, Vancouver, British Columbia) was added to the cells and incubated at 4° C. for 15 min. […]

`COc1cc(/C=C/C(=O)CC(=O)/C=C/c2ccc(O)c(OC)c2)ccc1O` [curcumin]: the “Gr1+ cell apoptosis” value in the data set with Gr1^+ cells is given as “induces Gr1^+ cell apoptosis”. The “curcumin remaining after incubation compared to the 0 min sample” value in data set [1] is given as 25%. In the data set with C57BL/6j mice, the “sera level of IL-6” value was “similar” and the “sera level of TNF-α” value is listed as “similar”. Besides, in the data set on C57BL/6 mice, the “EAE disease severity score” value is recorded as 3.60±0.12.

(Values after patent publication US10799457B2, “Exosomal compositions and methods for the treatment of disease” (priority 2010, dated 2020).)
